From ChEMBL document CHEMBL4184160, “Recent Progress of Small-Molecule Epidermal Growth Factor Receptor (EGFR) Inhibitors against C797S Resistance in Non-Small-Cell Lung Cancer” (J Med Chem, 2018)

Columns and labels:
[1] = molecular target: Epidermal growth factor receptor (Homo sapiens, UniProt P00533); experiment: Inhibition of wild type recombinant N-terminal GST-tagged human EGFR catalytic domain expressed in Sf9 insect cells using poly-Glu-Tyr (4:1) as substrate after 2 hrs in presence of [gamma-33P]-ATP by filter-binding method
Homo sapiens [2] = species on record: Homo sapiens; experiment: Selectivity ratio of IC50 for wild type recombinant N-terminal GST-tagged human EGFR catalytic domain to IC50 for recombinant human EGFR d746-750/T790M/C797S mutant
[3] = molecular target: Epidermal growth factor receptor (Homo sapiens, UniProt P00533, 746-750DEL/C797S/T790M); experiment: Inhibition of recombinant human EGFR d746-750/T790M/C797S mutant using poly-Glu-Tyr (4:1) as substrate after 2 hrs in presence of [gamma-33P]-ATP by filter-binding method
NCI-H1975 = experiment: Growth inhibition of human NCI-H1975 cells after 96 hrs by CellTiter-Glo assay; format: functional; conditions: NCI-H1975, 96 h
[4] = molecular target: Epidermal growth factor receptor (Homo sapiens, UniProt P00533, C797S/T790M); experiment: Inhibition of N-terminal GST-fused human EGFR cytoplasmic domain T790M/C797S mutant expressed in baculovirus expression system using TK-substrate after 20 mins by HTRF KinEASE-TK assay
[5] = molecular target: Epidermal growth factor receptor (Homo sapiens, UniProt P00533, C797S/L858R/T790M); experiment: Inhibition of recombinant human EGFR L858R/T790M/C797S mutant using TK-substrate after 10 mins by HTRF KinEASE-TK assay
[6] = test system: Epidermal growth factor receptor (Homo sapiens), P00533 [UNDEFINED MUTATION]
Description: Inhibition of human EGFR del19/T790M/C797S mutant expressed in mouse Ba/F3 cells assessed as cell growth inhibition after 72 hrs by CellTiter-Glo assay

Homo sapiens [7] = species on record: Homo sapiens; experiment: Selectivity ratio of IC50 for human EGFR T790M mutant to IC50 for human wild type EGFR

Chain of Epidermal growth factor receptor (Homo sapiens, UniProt P00533, 746-750DEL/C797S/T790M) (P00533 whole entry, looked up, stated change not applied): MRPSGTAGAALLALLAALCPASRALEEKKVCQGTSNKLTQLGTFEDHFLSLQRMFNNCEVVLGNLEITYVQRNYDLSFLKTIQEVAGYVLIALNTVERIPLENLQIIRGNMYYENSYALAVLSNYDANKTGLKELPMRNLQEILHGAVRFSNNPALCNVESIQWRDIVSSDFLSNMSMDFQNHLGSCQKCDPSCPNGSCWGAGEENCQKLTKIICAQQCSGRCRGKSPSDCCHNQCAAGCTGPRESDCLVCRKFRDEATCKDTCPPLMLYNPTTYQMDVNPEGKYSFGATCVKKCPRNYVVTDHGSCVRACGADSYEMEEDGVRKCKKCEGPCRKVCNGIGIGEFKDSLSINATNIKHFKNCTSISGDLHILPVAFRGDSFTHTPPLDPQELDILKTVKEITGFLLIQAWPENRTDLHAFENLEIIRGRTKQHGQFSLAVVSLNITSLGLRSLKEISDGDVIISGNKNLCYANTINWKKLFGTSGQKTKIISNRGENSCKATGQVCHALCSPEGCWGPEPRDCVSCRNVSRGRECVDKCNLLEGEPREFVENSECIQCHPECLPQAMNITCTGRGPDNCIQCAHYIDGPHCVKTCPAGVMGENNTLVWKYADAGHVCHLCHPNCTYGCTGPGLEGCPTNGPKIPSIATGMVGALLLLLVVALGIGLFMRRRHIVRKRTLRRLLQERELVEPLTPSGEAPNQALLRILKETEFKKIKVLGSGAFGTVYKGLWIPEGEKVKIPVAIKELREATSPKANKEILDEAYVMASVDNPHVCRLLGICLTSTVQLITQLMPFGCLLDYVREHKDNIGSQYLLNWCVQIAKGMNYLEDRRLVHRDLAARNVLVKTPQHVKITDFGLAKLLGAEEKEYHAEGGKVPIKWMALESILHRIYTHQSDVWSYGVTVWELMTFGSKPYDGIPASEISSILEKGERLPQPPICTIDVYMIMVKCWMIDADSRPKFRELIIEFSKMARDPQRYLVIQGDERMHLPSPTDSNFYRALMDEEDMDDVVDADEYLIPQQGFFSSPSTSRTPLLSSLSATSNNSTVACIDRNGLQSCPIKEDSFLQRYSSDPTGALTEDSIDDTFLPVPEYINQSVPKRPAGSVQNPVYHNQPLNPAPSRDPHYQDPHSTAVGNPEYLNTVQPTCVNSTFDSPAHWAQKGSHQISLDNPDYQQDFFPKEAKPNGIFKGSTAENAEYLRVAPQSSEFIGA
Chain of Epidermal growth factor receptor (Homo sapiens), P00533 [UNDEFINED MUTATION] (P00533 whole entry, looked up, stated change not applied): as above
Chain of Epidermal growth factor receptor (Homo sapiens, UniProt P00533) (P00533 whole entry, the tested form may be a part): as the sequence (P00533 whole entry, looked up, stated change not applied) above
Chain of Epidermal growth factor receptor (Homo sapiens, UniProt P00533, C797S/L858R/T790M) (P00533 25-1210 T790M/C797S/L858R limits assumed): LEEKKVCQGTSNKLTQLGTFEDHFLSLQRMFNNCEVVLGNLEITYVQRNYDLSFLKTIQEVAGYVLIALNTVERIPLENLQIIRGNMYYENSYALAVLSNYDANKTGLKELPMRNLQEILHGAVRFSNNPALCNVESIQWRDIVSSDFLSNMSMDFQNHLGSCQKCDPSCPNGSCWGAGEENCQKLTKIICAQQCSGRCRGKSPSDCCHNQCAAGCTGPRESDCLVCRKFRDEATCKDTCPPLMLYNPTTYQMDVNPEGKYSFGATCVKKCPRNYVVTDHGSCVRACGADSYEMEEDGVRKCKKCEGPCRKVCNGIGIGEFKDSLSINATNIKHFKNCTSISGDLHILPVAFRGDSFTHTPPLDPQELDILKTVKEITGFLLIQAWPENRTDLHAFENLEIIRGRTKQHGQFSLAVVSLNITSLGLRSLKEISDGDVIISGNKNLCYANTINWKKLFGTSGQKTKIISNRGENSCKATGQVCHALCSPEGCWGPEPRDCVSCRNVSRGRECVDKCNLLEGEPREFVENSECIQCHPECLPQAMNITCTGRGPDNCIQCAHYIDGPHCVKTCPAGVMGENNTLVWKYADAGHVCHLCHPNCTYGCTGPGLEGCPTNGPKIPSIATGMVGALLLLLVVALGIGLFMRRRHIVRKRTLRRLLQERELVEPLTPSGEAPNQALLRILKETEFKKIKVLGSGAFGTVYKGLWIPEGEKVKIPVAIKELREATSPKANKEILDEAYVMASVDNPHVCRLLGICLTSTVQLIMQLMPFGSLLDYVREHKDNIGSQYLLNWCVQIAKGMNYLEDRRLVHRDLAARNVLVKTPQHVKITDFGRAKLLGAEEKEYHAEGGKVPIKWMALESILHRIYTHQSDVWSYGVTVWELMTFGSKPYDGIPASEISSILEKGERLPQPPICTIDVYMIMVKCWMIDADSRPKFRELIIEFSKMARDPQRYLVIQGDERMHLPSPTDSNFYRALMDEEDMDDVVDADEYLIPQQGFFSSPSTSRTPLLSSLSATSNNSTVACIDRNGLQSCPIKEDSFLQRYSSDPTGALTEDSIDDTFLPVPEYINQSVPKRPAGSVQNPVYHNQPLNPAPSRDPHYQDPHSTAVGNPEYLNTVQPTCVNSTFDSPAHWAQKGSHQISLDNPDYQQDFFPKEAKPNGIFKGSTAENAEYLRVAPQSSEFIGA

| SMILES | IC50 [1] | Ratio IC50 (Homo sapiens [2]) | IC50 [3] | GI50 [6] | other results |
| --- | --- | --- | --- | --- | --- |
| Oc1ccccc1-c1nc(NCc2cccnc2)c2ccccc2n1 | 24.3 µM | 163 | 149 nM | – | – |
| C=CC(=O)N1CCC[C@@H](n2nc(-c3ccc4ccccc4c3)c3c(N)ncnc32)C1 | – | – | – | – | GI50 (NCI-H1975): 140 nM; IC50 [4]: < 1 nM; IC50 [5]: 88 nM |
| COc1cc(N2CCC(N)CC2)ccc1Nc1ncc(Cl)c(-c2c[nH]c3ccccc23)n1 | – | – | – | 132 nM | – |
| C=CC(=O)Nc1cccc(Oc2nc(Nc3ccc(N4CCN(C)CC4)cc3OC)ncc2Cl)c1 | – | – | – | – | Ratio IC50 (Homo sapiens [7]): 30 to 100 |
| N#Cc1ccc(O)c(-c2nc(NCc3cccnc3)c3ccccc3n2)c1 | > 50 µM | > 1000 | 23 nM | – | – |
| COC(=O)c1ccc(O)c(-c2nc(NCc3cccnc3)c3ccccc3n2)c1 | > 50 µM | > 1000 | 46 nM | – | – |
| C=CC(=O)N1CCC[C@@H](n2nc(-c3cccc4ccccc34)c3c(N)ncnc32)C1 | – | – | – | – | GI50 (NCI-H1975): 490 nM; IC50 [4]: 1.9 nM; IC50 [5]: 7900 nM |
| C=CC(=O)N1CCC[C@@H](n2nc(-c3cn(C)c4ccccc34)c3c(N)ncnc32)C1 | – | – | – | – | GI50 (NCI-H1975): 210 nM; IC50 [4]: 2.5 nM; IC50 [5]: 838 nM |
| Cc1cc(Nc2ncc(Cl)c(Nc3ccccc3S(=O)(=O)C(C)C)n2)c(OC(C)C)cc1C1CCNCC1 | – | – | – | 780 nM | – |
| COc1cc(N2CCC(N3CCN(C)CC3)CC2)ccc1Nc1ncnc(Nc2ccccc2S(=O)(=O)C(C)C)n1 | – | – | – | 1510 nM | – |
| N#Cc1ccc(O)c(-c2nc(NCc3cnccn3)c3ccccc3n2)c1 | > 50 µM | > 1000 | 17 nM | – | – |
| COc1cc(N2CCC(N(C)C)CC2)ccc1Nc1ncc(Cl)c(Nc2ccccc2P(C)(C)=O)n1 | – | – | – | 59.1 nM | – |
